Assay results taken from publication PMC7721589, “Synthesis and structure-activity relationships for tetrahydroisoquinoline-based inhibitors of Mycobacterium tuberculosis” (Bioorganic & Medicinal Chemistry, 2020).
Converted amounts (≈) assume the structure as drawn.

Columns and labels:
[1] = test system: M.tb strain H37Rv; experiment: MIC against M.tb H37Rv under non-replicating (LORA) conditions; conditions: MIC90, Table 1
[2] = Microsomal clearance in mouse liver microsomes; further: unit not given here
[3] = test system: Vero green monkey-derived epithelial kidney cells; experiment: Mammalian cytotoxicity in Vero cells; format: cell-based; conditions: Table 1
[4] = test system: M.tb strain H37Rv; experiment: MIC against M.tb H37Rv under aerobic (replicating; MABA) conditions; format: cell-based, Mycobacterium tuberculosis; conditions: MIC90, Table 1
[5] = Stability in CDCl3 solution; format: physicochemical; conditions: over 1–2 days
Excerpt: Note: The X = OMe compounds 8 and 9 were unstable in CDCl3 solution over 1–2 days.

[6] = target: human mitochondrial ATP synthase (Homo sapiens, UniProt P00846+P05496); experiment: Inhibition of human mitochondrial ATP synthase; format: biochemical
human mitochondrial ATP synthase, sequence (P05496 62-136): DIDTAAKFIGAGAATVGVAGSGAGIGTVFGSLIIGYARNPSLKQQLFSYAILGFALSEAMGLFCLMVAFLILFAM
human mitochondrial ATP synthase, sequence (P00846 whole entry): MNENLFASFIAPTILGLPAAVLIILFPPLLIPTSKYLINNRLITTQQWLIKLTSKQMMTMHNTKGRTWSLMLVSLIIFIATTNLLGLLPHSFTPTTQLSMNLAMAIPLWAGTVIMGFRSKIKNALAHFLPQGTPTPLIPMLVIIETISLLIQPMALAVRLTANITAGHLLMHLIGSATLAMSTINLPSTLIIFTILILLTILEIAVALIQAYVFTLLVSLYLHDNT
human mitochondrial ATP synthase, sequence (P06576 48-529, further chain): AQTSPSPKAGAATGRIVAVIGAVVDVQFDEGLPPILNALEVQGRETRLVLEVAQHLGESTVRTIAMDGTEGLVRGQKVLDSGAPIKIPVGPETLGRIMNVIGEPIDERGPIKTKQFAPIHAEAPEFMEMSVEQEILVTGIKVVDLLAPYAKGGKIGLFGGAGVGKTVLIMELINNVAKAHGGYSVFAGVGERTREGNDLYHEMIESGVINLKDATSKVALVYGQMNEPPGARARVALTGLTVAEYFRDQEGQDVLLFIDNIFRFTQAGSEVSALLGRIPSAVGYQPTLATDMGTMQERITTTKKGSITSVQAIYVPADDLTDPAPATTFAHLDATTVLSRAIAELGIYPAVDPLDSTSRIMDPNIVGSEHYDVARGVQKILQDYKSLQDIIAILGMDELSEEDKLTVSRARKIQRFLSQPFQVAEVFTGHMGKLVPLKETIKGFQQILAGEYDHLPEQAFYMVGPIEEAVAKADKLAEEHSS
human mitochondrial ATP synthase, sequence (P25705 44-553, further chain): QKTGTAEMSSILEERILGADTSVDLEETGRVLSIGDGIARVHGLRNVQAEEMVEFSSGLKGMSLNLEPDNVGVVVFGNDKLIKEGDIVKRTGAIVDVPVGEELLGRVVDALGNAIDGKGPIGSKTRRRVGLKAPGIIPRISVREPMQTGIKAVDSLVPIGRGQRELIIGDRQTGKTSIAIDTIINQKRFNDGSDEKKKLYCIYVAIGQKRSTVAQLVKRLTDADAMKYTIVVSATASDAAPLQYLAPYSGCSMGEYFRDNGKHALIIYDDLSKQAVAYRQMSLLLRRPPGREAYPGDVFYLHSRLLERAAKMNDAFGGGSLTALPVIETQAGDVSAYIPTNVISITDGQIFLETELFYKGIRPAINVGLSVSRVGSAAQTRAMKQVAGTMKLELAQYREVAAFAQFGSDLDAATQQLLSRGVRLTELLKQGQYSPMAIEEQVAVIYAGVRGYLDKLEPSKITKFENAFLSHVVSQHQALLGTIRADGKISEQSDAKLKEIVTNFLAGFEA
human mitochondrial ATP synthase, sequence (P30049 23-168, further chain): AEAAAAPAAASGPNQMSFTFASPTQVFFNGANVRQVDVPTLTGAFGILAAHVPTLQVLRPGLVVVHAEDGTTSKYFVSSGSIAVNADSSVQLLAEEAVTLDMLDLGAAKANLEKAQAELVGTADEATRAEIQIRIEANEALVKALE
human mitochondrial ATP synthase, sequence (P36542 26-298, further chain): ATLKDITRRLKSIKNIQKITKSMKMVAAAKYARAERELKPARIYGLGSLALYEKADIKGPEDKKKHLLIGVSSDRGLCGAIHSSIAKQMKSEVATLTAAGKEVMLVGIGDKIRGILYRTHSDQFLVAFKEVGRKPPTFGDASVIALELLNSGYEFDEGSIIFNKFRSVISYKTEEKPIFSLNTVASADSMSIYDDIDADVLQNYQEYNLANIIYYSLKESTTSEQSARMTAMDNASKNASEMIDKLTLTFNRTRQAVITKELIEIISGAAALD

[7] = Microsomal clearance in human liver microsomes; further: unit not given here
[8] = target: M. smegmatis ATP synthase (Mycolicibacterium smegmatis, UniProt A0R205+A0R206); experiment: Inhibition of mycobacterial ATP synthase; format: biochemical; conditions: M. smegmatis ATP synthase

Compound	MIC LORA [1]	MLM Clint [2]	IC50 VERO [3]	MIC MABA [4]	stability in CDCl3 solution [5]	Mamm. ATPsynth IC50 [6]	HLM Clint [7]	M. smeg ATPsynth IC50 [8]
COc1ccc(N2CCN(C)CC2)c2c1CCN(C(=O)Nc1ccc(-c3ccc(Cl)cc3C)cn1)C2 [Compound 8, N-(5-(4-Chloro-2-methylphenyl)pyridin-2-yl)-5-methoxy-8-(4-methylpiperazin-1-yl)-3,4-dihydroisoquinoline-2(1H)-carboxamide]	3.6 µg/mL (≈ 7.11 µM)	42	12 µg/mL (≈ 23.7 µM)	1.9 µg/mL (≈ 3.75 µM)	unstable	16 µg/mL	17	4.2 µg/mL
N-(5-(4-chloro-2-methylphenyl)pyridin-2-yl)-5-methyl-8-(4-methylpiperazin-1-yl)-3,4-dihydroisoquinoline-2(1H)-carboxamide [Compound 6]	2.4 µg/mL	35	22 µg/mL	1.9 µg/mL	–	23 µg/mL	22	5.5 µg/mL
